Reference: ChEMBL document CHEMBL1151335, “Clavaric acid: a triterpenoid inhibitor of farnesyl-protein transferase from Clavariadelphus truncatus” (J Nat Prod, 1998)
Calls of active or inactive are those of the source. No cut-off for these calls is given here.

Key:
Homo sapiens = species: Homo sapiens; test: (§1) Inhibition of human recombinant protein farnesyl transferase expressed in Escherichia coli
[1] = as §1
NIH3T3 = test: Inhibition of Ras expression in mouse NIH/3T3 cells at 50 uM; type: functional, cell-based
[2] = target: T1, Squalene synthase (Homo sapiens) (UniProt P37268); test: Inhibition of squalene synthase
T1 sequence (whole entry): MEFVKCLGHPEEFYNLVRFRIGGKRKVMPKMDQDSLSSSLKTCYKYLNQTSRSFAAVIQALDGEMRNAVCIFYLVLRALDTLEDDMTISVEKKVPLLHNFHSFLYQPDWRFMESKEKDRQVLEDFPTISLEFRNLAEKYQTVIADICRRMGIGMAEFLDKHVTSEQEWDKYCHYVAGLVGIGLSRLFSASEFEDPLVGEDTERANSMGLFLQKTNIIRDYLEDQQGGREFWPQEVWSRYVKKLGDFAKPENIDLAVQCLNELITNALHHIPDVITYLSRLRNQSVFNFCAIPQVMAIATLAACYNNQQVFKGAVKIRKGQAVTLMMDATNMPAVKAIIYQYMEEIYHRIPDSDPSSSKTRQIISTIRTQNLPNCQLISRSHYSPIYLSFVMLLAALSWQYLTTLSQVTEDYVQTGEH

[3] = Cytotoxicity against mouse NIH/3T3 cells at 50 uM; type: cell-based; conditions: nih3t3, 50 µM
[4] = Inhibition of geranylgeranyl protein transferase

Row | Activity (Homo sapiens) | IC50 [1] [µM] | Activity [2] | Activity [4] | Compound | Activity (NIH3T3) | Activity [3]
1 | inactive |  |  |  | COC(=O)C[C@](C)(O)CC(=O)O[C@@H]1C[C@]2(C)C3=C(CC[C@H]2C(C)(C)C1=O)[C@]1(C)CC[C@H]([C@H](C)CCC(O)C(C)(C)O)[C@@]1(C)CC3 (some centres not stated) |  | 
2 |  | 10.5 |  |  | C[C@H](CCC(O)C(C)(C)O)[C@H]1CC[C@@]2(C)C3=C(CC[C@]12C)[C@@]1(C)C[C@@H](O)C(=O)C(C)(C)[C@@H]1CC3 (some centres not stated) [CLAVARINONE] |  | 
3 |  | 1.3 | inactive | inactive | C[C@H](CCC(O)C(C)(C)O)[C@H]1CC[C@@]2(C)C3=C(CC[C@]12C)[C@@]1(C)C[C@@H](OC(=O)CC(C)(O)CC(=O)O)C(=O)C(C)(C)[C@@H]1CC3 (some centres not stated) [CLAVARIC ACID] | Active | Non-toxic
